Test results from patent US11529342B2, “Sorbic and benzoic acid and derivatives thereof enhance the activity of a neuropharmaceutical” (Los Angeles Biomedical Research Institute at Harbor-UCLA …, priority 2009, dated 2022).
“Also recorded” adds a separate entry of the source.

Legend:
rats = assay: Forced swim test (FST); type: in vivo; details: 500 mg/kg; for Immobility time (%): 5-min test, vehicle 46.94 ± 4.6; for duration of immobility compared to the vehicle control group: FST
Experimental: Following acclimation at least 7 days in the animal facility prior to initiation of behavioral testing, the animals (rats) were subjected to the forced swim test (FST). The method of the […] has been used in previous animal studies of depression, which was modified by Cryan from the Porsolt's FST. (Porsolt et al, 1977; Cryan et al, 2002) The test was performed using a acrylic cylinder (diameter, 20 cm; height, 40 cm) filled to a height of 30 cm with 25° C. water. Rats were processed to a 15-min conditioning swim. Following 24 h after their first exposure, the rats were again placed in the swim apparatus for 5 min. The behavior of rats was observed 5 min after the administration of various drug treatments or 0.9% saline (control). All behavioral testing was conducted between 1600-1800 h. On. the study day, the total periods of immobility during the 5-min testing period were recorded using the EthoVision Basic V 3.1 analysis program (Noldus, Wageningen, Netherlands). For the present experiment, the immobility threshold was set at 15% and a fixed averaging interval of 1 second was chosen to smooth the mobility parameter in EthoVision software. Below the immobile threshold, the animal is considered immobile. Using the settings, the activity of all rats was analyzed automatically and quantitatively for mobility and numbers of crossing vertical central line in the FST.

Male 129 SVE adult mice [1] = assay: Acoustic startle habituation in mice, with and without amphetamine disruption; type: in vivo; details: for startle habituation, correction of amphetamine-induced disruption: amphetamine 10 mg/kg 30 minutes before the experiment
Text: (§1) Therefore, to test the hypothesis that combinational NMDA-enhancing agent treatment has better efficacy than individual agent alone, we tested startle habituation and PPI in animals receiving single NMDA-enhancing agents, sarcosine (N-methylglycine, a glycine transporter-1 inhibitor), benzoate (a D-amino acid oxidase inhibitor), the combination of both agents or the vehicle. We also tested the hypothesis in a well accepted pharmacological model of schizophrenia, amphetamine--disruption of startle habituation and PPI.
For habituation, we present six trials of a single acoustic stimulus to each mouse. To provide a consistent acoustic environment and to mask external noises, maintain a continuous background noise level of 70 dB within each startle chamber. We collected the peak or average response from each mouse on each of six trials, then averaged the six responses together for each mouse. Five more trials at the end of PPI were done. The results were averaged and compared to the original six trials. The difference of startle responses between the initial six and the last five trials were considered the amount of habituation. Analyses include the independent variable (e.g., vehicle or drug treatment) as a factor in analyses of variance (ANOVA) on the dependent measures (difference of the average of the first and last […]).
(§2) There were a total of 36 trials in the experiments. The three prepulse stimuli were with a duration of 20 msec. For each mouse the following metrics were determined: 1) Average response magnitude on pulse--only trials 1 to 6 and 32 to 36; 2)Average response magnitude in each of the four trial types between trials 7 and 31 inclusively (i.e., ten pulse-only trials and five each of the three prepulse variations). The first block of pulse-only trials were analyzed as measures of startle reactivity. The first and last blocks of pulse-only trials were analyzed together in a repeated measure ANOVA to assess habituation of acoustic startle across the test session. The […] (3, 6, or 12 dB above background) derived from trials 7 to 31 were used to assess PPI which was calculated for each mouse as: Percentage score: PPI=100%×{[pulse-only units−(prepulse pulse units)]/(pulse-only units)}.
Male 129 SVE adult mice were first tested at baseline. Four groups of 10 mice each were treated with sarcosine (200 mg/kg), benzoate (100 mg/kg), a combination of both sarcosine and benzoate (same doses as the individual treatment), or with vehicle for one week before the test. The mice continued to receive the drug until one week later when amphetamatine (10 mg/kg) was administered 30 minutes before the experiments.

Male 129 SVE adult mice [2] = assay: Prepulse inhibition (PPI) of acoustic startle, amphetamine disruption; type: in vivo; details: for PPI, correction of disruption by amphetamine: sarcosine 200 mg/kg, benzoate 100 mg/kg or both, amphetamine 10 mg/kg 30 minutes before
Text: as §1
For the systematic investigation of the neurobiological systems that modulate sensorimotor inhibition, startle magnitude was investigated. Startle magnitude is reduced when the pulse stimulus is preceded 30 to 500 msec by a weak prepulse. This inhibition (“gating”) of a motor response elicited by a weak sensory event, termed PPI, provides an operational measure of sensorimotor gating. Prepulse stimuli of 3, 6, or 12 dB above the 70 dB background noise inhibit the startle response elicited by 120-dB pulse stimuli.
Prestimuli used in intranodal studies of sensorimotor gating of acoustic startle are by the delivery of a discrete acoustic prepulse several msec before the startle pulse, with an intensity below startle threshold. […]
as §2, with “The three prepulse stimuli were with a duration of 20 msec.” left out, “units)}. […]” for “units)}.”

schizophrenia patients [3] = assay: 6-week randomized double-blind placebo-controlled add-on trial in schizophrenia, efficacy (PANSS, SANS, Quality of Life, GAF); type: in vivo, human; details: 1000-mg/day adjunctive to atypical antipsychotics, 6 weeks, n=18 per group
Experimental: The research protocol was approved by the Institutional Review Boards (IRB) of the institute. Patients were screened and evaluated by the research psychiatrists. After complete description of the study to the subjects, written informed consent was obtained in line with the IRB's guidelines. The Structured Clinical Interview for DSM-IV was conducted for the diagnosis.
The dosing for the concurrent antipsychotics (all atypical antipsychotics), was an optimal dosing strategy which minimize side effects, especially extrapyramidal side effects (EPS), and can still yield favorable efficacy. […]
All patients were then randomly assigned under double-blind conditions to receive a 6-week trial of placebo, or sodium benzoate (1 grams) daily. […] Patient's compliance and safety were closely monitored by the research psychiatrists and the inpatient nursing staff.
The primary outcome measures were psychopathology changes measured by PANSS (3) and, Scales for the Assessment of Negative symptoms (SANS) (4) total scores, Quality of Life scale (10 items for inpatient use) (1, 5), and Global Assessment of Function (Axis V in DSM IV) (2). […]
Clinical ratings were performed by the research psychiatrists who were trained and experienced in the rating scales. Inter-rater reliability was analyzed with the ANOVA test. […]

schizophrenia patients [4] = assay: 6-week add-on trial in schizophrenia, safety and side-effect assessments; type: in vivo, human; details: 6 weeks
Text: All patients were then randomly assigned under double-blind conditions to receive a 6-week trial of placebo, or sodium benzoate (1 grams) daily. Patients were randomized in clusters of six subjects, without stratification, through a computer-generated randomization table to receive placebo or active drugs in a 1:1 ratio. To ensure concealment of the randomization assignment, study medication was provided in coded containers with supply of identical-appearing capsules of placebo or either of active compounds. The research pharmacist implemented random allocation and masked treatment assignment was communicated by telephone to research staff. Patients, caregivers, and investigators (except for the investigational pharmacist) were all masked to the assignment. Patient's compliance and safety were closely monitored by the research psychiatrists and the inpatient nursing staff.
Side-effect assessments included Simpson-Angus Rating Scale for EPS (6), Abnormal Involuntary Movement Scale (AIMS) for dyskinesia (7), and Barnes Akathesia Scale (8). Systemic side effects of treatments were evaluated by means of routine physical and neurological examinations, laboratory tests, and reviewed by applying the Udvalg for Kliniske Undersogelser (UKU) Side-effects Rating Scale (9).

[5] = mice, sarcosine 200 mg/kg, benzoate 100 mg/kg or both

SMILES	Immobility time (%) (rats)	duration of immobility compared to the vehicle control group (rats)	startle habituation, correction of amphetamine-induced disruption (Male 129 SVE adult mice [1]; [5])	PPI, correction of disruption by amphetamine (Male 129 SVE adult mice [2])	further results
C/C=C/C=C/C(=O)[O-].[K+] [Potassium Sorbate, potassium sorbate]	27.64 ± 6.2	decrease the duration of immobility significantly	–	–	–
O=C([O-])c1ccccc1.[Na+] [Sodium Benzoate, sodium benzoate]	40.17 ± 3.3	decrease the duration of immobility significantly	partially correct the deficit; also recorded: better than sarcosine and close to effect seen in the combination treatment; also recorded: only partially corrected the deficit; also recorded: better than sarcosine and close to that seen in the combination treatment	partially corrected	startle habituation (difference of startle responses between initial and last trials) (Male 129 SVE adult mice [1]; mice treated one week, sarcosine 200 mg/kg, benzoate 100 mg/kg or both, no amphetamine): close to the effect seen in the combination treatment; positive and negative symptoms and quality of life versus placebo (schizophrenia patients [3]): significantly improve positive and negative symptoms and quality of life than placebo; safety and tolerability (schizophrenia patients [4]; adjunctive therapy): good safety and tolerability; treatment-emergent side effects (schizophrenia patients [4]; benzoate versus placebo): all mild, short-lived, and not warranting medical treatment
CC(N)Cc1ccccc1 (stereo not drawn) [amphetamine, reference compound]	–	–	–	–	effect of amphetamine on startle habituation (Male 129 SVE adult mice [1]; mice, amphetamine 10 mg/kg 30 minutes before the experiments): disrupted the habituation; effect of amphetamine on PPI (Male 129 SVE adult mice [2]; amphetamine 10 mg/kg 30 minutes before the experiments): disrupted the inhibition in all treatments
CNCC(=O)O [sarcosine, N-methylglycine, reference compound]	–	–	combination treatment>benzoate>sarcosine	partially corrected	startle habituation, correction of amphetamine-induced disruption (Male 129 SVE adult mice [1]; mice, sarcosine 200 mg/kg, benzoate 100 mg/kg or both, listed as NMG): partially correct the deficit; also recorded: only partially corrected the deficit
